Experimental data taken from US7390870B2, “Immune-enhancing peptides” (Posco, priority 2001, dated 2008).
No end group written: not given here.

Columns and labels:
human monocytes [1] = assay: Checkboard analysis of monocyte migration across polycarbonate membrane; format: cell-based; details: 2 hr
Protocol: (§1) Chemotaxis assays of the peptide were performed using multiwell chambers (Neuroprobe Inc., Gaithersburg, Md.) (20). Briefly, the prepared isolated human monocytes were suspended in RPMI at a concentration of 1×10^6 cells/ml of serum-free RPMI, and 25 □ of the suspension were placed onto the upper well of a 96-well chemotaxis chamber that was separated by a […] filter with a 5 □ pore size (3 □ diameter pores not coated with polyvinylpyrrolidone for neutrophils) from peptides or an fMLF-containing lower well. After incubation for 2 hours (90 minutes for neutrophils) at 37° C., non-migrated cells were removed by scraping them out, and cells that migrated across the filter were dehydrated, fixed, and stained with hematoxylin (Sigma, St. Louis, Mo.). The stained cells in five randomly chosen high power fields (HPF) (400×) in that well were then counted (21). The numbers of migrated cells were determined by counting them in a high power field (400×). For a checkboard analysis, cells were re-suspended in RPMI containing various concentrations of the peptide just before transferring them to the upper wells as described before (22).
To distinguish whether the peptide-induced monocyte migration is chemotaxis or chemokinesis, a checkboard analysis was performed as described above (22, 26).

human neutrophil = assay: Chemotaxis assay, human neutrophils (multiwell chamber); format: cell-based; details: similar concentrations as for monocyte migration
Protocol: as §1

[2] = tested on: differentiated HL60 cells; assay: Superoxide generation in differentiated HL60 cells; format: cell-based, human; details: similar concentrations as for the [Ca2+]i increase
Protocol: For initial screening of the PS-SPCLs, the superoxide anion generation of each peptide pool was evaluated by measuring reduction of cytochrome c using a microtiter 96 well plate ELISA reader (Bio-Tekinstruments, EL312e, Winooski, Vt.) as described (20). The cytochrome c was purchased from Sigma (St. Louis, Mo.). The human monocytes (9×10^5 cells/100 □ of RPMI 1640 medium per well of a 96-well plate) were preincubated with 50 μM cytochrome c at 37° C. for 1 minute and then incubated with the indicated concentrations of peptide pools (final 0.5 nM per peptide sequence for the initial screening). The superoxide generation was measured as change in light absorption at 550 nm over 5 minutes at 1 minute intervals. From at least four independent experiments, peptides with active amino acids at each position were chosen. Superoxide generation by the identified peptides was measured by the same method. Spurious reduction of cytochrome c was ruled out by checking that the peptides-induced ones were superoxide dismutase-inhibitable in all experiments.
A test where the three peptides on HL60 cells that had differentiated into granulocytes after having been cultured in the presence of 1.25% DMSO for 4 days was performed. HL60 cells were cultured in RPMI medium containing 20% FCS. […] The peak level of the [Ca^2+]i increase was recorded. […]

human monocytes [3] = assay: [Ca2+]i rise in human monocytes (fura-2/AM); format: cell-based
Protocol: (§2) The level of [Ca^2+]i was determined by Grynkiewicz's method using fura-2/AM (21). Briefly, prepared cells were incubated with 3 μM fura-2/AM at 37° C. for 50 minutes in a fresh serum-free RPMI 1640 medium under continuous stirring. 2×10^6 cells were aliquoted for each assay in Ca^2+-free Locke's solution (154 mM NaCl, 5.6 mM KCl1.2 mM MgCl2, 5 mM HEPES, pH 7.3, 10 mM glucose, and 0.2 mM EGTA). The fluorescence changes at the dual excitation wavelengths of 340 nm and 380 nm and the emission wavelength of 500 nm were measured, and the calibrated fluorescence ratio was translated into [Ca^2+]i.
Many extracellular agonists that stimulate superoxide generation in human phagocytic cells involve intracellular calcium rise (23). In this example, the effect of the peptides on the [Ca^2+]i of monocytes were tested. The results are shown FIG. 3. The data of FIG. 3 are presented as means ±S.E. of four independent experiments. *P<0.01 versus vehicle treatment.
Fura-2-loaded monocytes were stimulated with an effective concentration of HFYLPM (1 μM), MFYLPM (1 μM), HFYLPm (100 nM), and LFMYHP (10 μM). The change in 340 nm/380 nm was monitored. The cells were stimulated with various concentrations of each peptide. The peak level of the increase in [Ca^2+]i was monitored. […] The results of A of FIG. 3 are representative of 6 independent experiments. […]

[4] = tested on: NIH3T3 (NIH Swiss mouse embryo fibroblast); assay: [Ca2+]i rise in NIH3T3 cells (fura-2); format: cell-based; details: FIG. 4A; 20 μM peptide
Protocol: as §2
From the fact that HFYLPM, MFYLPM, and HFYLPm stimulate human monocytes, effects of the peptides on other leukocytes such as neutrophils were evaluated. Prepared human primary monocytes, neutrophils, cultured HL60, Jurkat, U937, NIH3T3, 3Y1, 3T3L1, and PC12 cells were loaded with fura-2 and stimulated with effective concentrations of the three peptides (1 μM for monocyte and neutrophil; 10 μM for HL60 and Jurkat; 20 μM for U937, NIH3T3, 3Y1, 3T3L1, and PC12). The peak level of the [Ca^2+]i increase was recorded and superoxide generation was measured using cytochrome c reduction assay. The results are shown FIG. 4. The data of FIG. 4 are presented as means ±S.E. from at least three independent experiments.

Substance: Met-Phe-Tyr-Leu-Pro-Met-CONH2 (MFYLPM-NH2)
- migrated monocytes in 5 HPF (human monocytes [1]; peptide below 0 nM, above 10 nM): 11.3 ± 2.42
- migrated monocytes in 5 HPF (human monocytes [1]; peptide below 0 nM, above 100 nM): 15.0 ± 3.50
- migrated monocytes in 5 HPF (human monocytes [1]; peptide below 0 nM, above 1000 nM): 11.0 ± 2.67
- migrated monocytes in 5 HPF (human monocytes [1]; peptide below 10 nM, above 0 nM): 198 ± 32.3
- migrated monocytes in 5 HPF (human monocytes [1]; peptide below 10 nM, above 10 nM): 33.7 ± 8.93
- migrated monocytes in 5 HPF (human monocytes [1]; peptide below 10 nM, above 100 nM): 16.0 ± 3.16
- migrated monocytes in 5 HPF (human monocytes [1]; peptide below 10 nM, above 1000 nM): 12.3 ± 3.43
- migrated monocytes in 5 HPF (human monocytes [1]; peptide below 100 nM, above 0 nM): 557 ± 29.5
- migrated monocytes in 5 HPF (human monocytes [1]; peptide below 100 nM, above 10 nM): 425 ± 48.3
- migrated monocytes in 5 HPF (human monocytes [1]; peptide below 100 nM, above 100 nM): 66.3 ± 14.9
- migrated monocytes in 5 HPF (human monocytes [1]; peptide below 100 nM, above 1000 nM): 18.0 ± 4.05
- migrated monocytes in 5 HPF (human monocytes [1]; peptide below 1000 nM, above 0 nM): 484 ± 43.6
- migrated monocytes in 5 HPF (human monocytes [1]; peptide below 1000 nM, above 10 nM): 395 ± 38.5
- migrated monocytes in 5 HPF (human monocytes [1]; peptide below 1000 nM, above 100 nM): 198 ± 26.7
- migrated monocytes in 5 HPF (human monocytes [1]; peptide below 1000 nM, above 1000 nM): 76.7 ± 18.9
- cellular migration in human neutrophil (human neutrophil): induced cellular migration
- superoxide generation in differentiated HL60 cells [2]: resulted in superoxide generation
- effect on [Ca2+]i in monocytes (human monocytes [3]; FIG. 3A, HFYLPM 1 μM, MFYLPM 1 μM, HFYLPm 100 nM, LFMYHP 10 μM): caused intracellular Ca mobilization
- concentration of maximal [Ca2+]i increase (human monocytes [3]; FIG. 3B): 1 µM
- [Ca2+]i rise in NIH3T3 cells [4]: no response
